From ChEMBL document CHEMBL1152884, “The identification of orally bioavailable thrombopoietin agonists” (Bioorg Med Chem Lett, 2009)
In brackets after ≈: the same amount, converted by molar mass.

Assays:
[1] = Lipophilicity, log D of the compound; type: physicochemical; settings: octanol/water
[2] = Aqueous solubility of the compound; type: physicochemical
Thrombopoietin receptor = target: T1, Thrombopoietin receptor (Homo sapiens, UniProt P40238); assay: Agonist activity at human thrombopoietin receptor transfected in mouse BAF3 cells assessed as stimulation of beta lactamase activity incubated in dark up to 1 hr; type: functional, cell-based
T1 sequence (P40238 whole entry): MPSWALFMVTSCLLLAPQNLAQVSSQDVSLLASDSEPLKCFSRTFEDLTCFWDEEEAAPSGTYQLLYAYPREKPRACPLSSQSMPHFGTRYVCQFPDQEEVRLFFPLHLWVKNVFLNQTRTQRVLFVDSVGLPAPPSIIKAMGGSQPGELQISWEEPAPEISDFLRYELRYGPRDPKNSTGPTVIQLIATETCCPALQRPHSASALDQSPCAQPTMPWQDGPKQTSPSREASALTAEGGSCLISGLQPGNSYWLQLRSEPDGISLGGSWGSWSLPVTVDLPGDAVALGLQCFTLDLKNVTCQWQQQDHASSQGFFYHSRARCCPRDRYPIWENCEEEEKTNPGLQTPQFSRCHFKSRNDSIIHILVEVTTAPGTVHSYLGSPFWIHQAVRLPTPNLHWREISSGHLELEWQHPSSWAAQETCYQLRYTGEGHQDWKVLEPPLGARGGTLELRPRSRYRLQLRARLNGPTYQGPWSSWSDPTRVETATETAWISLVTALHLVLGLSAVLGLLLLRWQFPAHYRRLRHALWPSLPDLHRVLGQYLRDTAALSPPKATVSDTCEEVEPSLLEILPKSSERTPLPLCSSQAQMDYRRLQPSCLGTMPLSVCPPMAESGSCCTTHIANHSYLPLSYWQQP

[3] = Half life in rat at 5 mg/kg, po; type: ADME, organism-based; set-up: dose 5 mg/kg, route oral; settings: in vivo
Rattus norvegicus = assay: Volume of distribution at steady state in rat at 5 mg/kg, po; type: ADME, organism-based; set-up: dose 5 mg/kg, route oral; settings: in vivo
[4] = Plasma clearance in rat at 5 mg/kg, po; type: ADME, organism-based; set-up: dose 5 mg/kg, route oral
[5] = Bioavailability in rat at 5 mg/kg, po; type: ADME, organism-based; settings: in vivo
[6] = Bioavailability in dog at 5 mg/kg, po; type: ADME, organism-based, Canis lupus familiaris; settings: in vivo
[7] = Plasma clearance in dog at 5 mg/kg, po; type: ADME, organism-based, Canis lupus familiaris; set-up: dose 5 mg/kg, route oral
[8] = Half life in dog at 5 mg/kg, po; type: ADME, organism-based, Canis lupus familiaris; set-up: dose 5 mg/kg, route oral; settings: in vivo
Canis familiaris = assay: Volume of distribution at steady state in dog at 5 mg/kg, po; type: ADME, organism-based, Canis lupus familiaris; set-up: dose 5 mg/kg, route oral; settings: in vivo
[9] = Oral bioavailability in rat; type: ADME, organism-based; settings: in vivo
[10] = Clearance in iv dosed rat; type: ADME, organism-based; settings: in vivo
[11] = Permeability across human Caco-2 cell membrane; type: ADME, cell-based; settings: read-out: permeability
[12] = Protein binding in dog plasma; type: ADME, cell-free, Canis lupus familiaris; settings: read-out: PPB
[13] = Protein binding in mouse plasma; type: ADME, cell-free; settings: read-out: PPB
[14] = Protein binding in human plasma; type: ADME, cell-free; settings: read-out: PPB
[15] = Protein binding in rat plasma; type: ADME, cell-free; settings: read-out: PPB
[16] = aqueous medium, read-out: solubility

| Structure (SMILES) | logD [1] | solubility [2, 16] [µg/mL] | EC50 (Thrombopoietin receptor) [nM] | also measured |
| --- | --- | --- | --- | --- |
| O=C(Nc1nc(-c2cccc(OC(F)(F)F)c2F)cs1)c1ccc(Nc2cc(N3CC(O)C3)ncn2)cc1 | 4.61 | < 1 |  |  |
| O=C(Nc1nc(-c2cccc(C(F)(F)F)c2F)cs1)c1cnc(N2CCCCC2)c(Cl)c1 | 7.1 | < 10 | > 10000 |  |
| O=C(Nc1nc(-c2cccc(C(F)(F)F)c2F)cs1)c1cc(Cl)c(N2CCC(C(=O)O)CC2)c(Cl)c1 |  | < 10 | 10 |  |
| C[C@H]1CN(c2ncc(C(=O)Nc3nc(-c4cccc(C(F)(F)F)c4F)cs3)cc2Cl)CC1C(=O)O (some centres undefined) | 2.79 | < 10 | 43 |  |
| CC1=NN(c2ccc(C)c(C)c2)C(=O)/C1=N\Nc1cccc(-c2cccc(C(=O)[O-])c2)c1O.[Na+] |  |  |  | half-life [3]: 1.34 h; Vdss (Rattus norvegicus): 0.831 L/kg; CL/F [4]: 6.87 mL/min/kg; bioavailability [5]: 66.8% |
| CC1=NN(c2ccc(C)c(C)c2)C(=O)/C1=N\Nc1cccc(-c2cccc(C(=O)O)c2)c1O.NCCO |  |  |  | bioavailability [6]: 50%; half-life [3]: 1.29 h; Vdss (Rattus norvegicus): 0.579 L/kg; CL/F [7]: 0.94 mL/min/kg; CL/F [4]: 6.34 mL/min/kg; bioavailability [5]: 53.4%; half-life [8]: 2.31 h; solubility ([2]; buffer): < 1 µg/mL; Vdss (Canis familiaris): 0.228 L/kg |
| O=C(Nc1nc(-c2cccc(C(F)(F)F)c2F)cs1)c1ccc(N2CCC(C(=O)O)C2)nc1 (centres undefined) | 1.21 | 167 (≈ 348 µM) | 3300 | bioavailability [9]: < 3%; clearance [10]: 2.5 mL/min/kg; Papp [11]: 4.5 ×10⁻⁶ cm/s |
| O=C(Nc1nc(-c2cccc(C(F)(F)F)c2F)cs1)c1cnc(N2CCCC(C(=O)O)C2)c(Cl)c1 (centres undefined) | 2.94 | < 10 | 294 |  |
| O=C(Nc1nc(-c2cccc(C(F)(F)F)c2F)cs1)c1cnc(N2CCNC(C(=O)O)C2)c(Cl)c1 (centres undefined) | 1.88 | < 10 | 129 |  |
| NS(=O)(=O)C1CCN(c2ncc(C(=O)Nc3nc(-c4cccc(C(F)(F)F)c4F)cs3)cc2Cl)CC1 | 4.86 | < 10 | 34 |  |
| O=C(Nc1nc(-c2cccc(C(F)(F)F)c2F)cs1)c1cnc(N2CCC(c3nn[nH]n3)CC2)c(Cl)c1 | 3.24 | < 10 | 485 |  |
| NCCO.O=C(Nc1nc(-c2cccc(C(F)(F)F)c2F)cs1)c1ccc(N2CCC(C(=O)O)C2)nc1 (centres undefined) |  | > 2000 |  |  |
| C[C@@H](Nc1ncc(C(=O)Nc2nc(-c3cccc(C(F)(F)F)c3F)cs2)cc1Cl)C(=O)O | 1.57 | < 10 | 57 |  |
| CC1=NN(c2ccc(C)c(C)c2)C(=O)/C1=N\Nc1cccc(-c2cccc(C(=O)O)c2)c1O [ELTROMBOPAG] |  |  |  | solubility ([2]; buffer): 14000 µg/mL (≈ 31600 µM) |

The next lines start with results.

| logD [1] | solubility [2, 16] [µg/mL] | EC50 (Thrombopoietin receptor) [nM] | Structure (SMILES) | also measured |
| --- | --- | --- | --- | --- |
|  | 15600 |  | NCCO.O=C(Nc1nc(-c2cccc(C(F)(F)F)c2F)cs1)c1cnc(N2CCC(C(=O)O)CC2)c(Cl)c1 |  |
|  | < 10 | 50 | O=C(Nc1nc(-c2cccc(C(F)(F)F)c2F)cs1)c1cnc(N2CCC(C(=O)O)CC2)c(Br)c1 |  |
|  | < 10 | 56 | O=C(Nc1nc(-c2cccc(C(F)(F)F)c2F)cs1)c1ccc(N2CCC(C(=O)O)CC2)c(Cl)c1 |  |
|  | < 10 | > 1000 | COc1cc(C(=O)Nc2nc(-c3cccc(C(F)(F)F)c3F)cs2)cnc1N1CCC(C(=O)O)CC1 |  |
|  | < 10 | 134 | O=C(Nc1nc(-c2cccc(C(F)(F)F)c2F)cs1)c1cnc(N2CCC(C(=O)O)CC2)c(C(F)(F)F)c1 |  |
|  | < 10 | 138 | N#Cc1cc(C(=O)Nc2nc(-c3cccc(C(F)(F)F)c3F)cs2)cnc1N1CCC(C(=O)O)CC1 |  |
|  | < 10 | 253 | Cc1cc(C(=O)Nc2nc(-c3cccc(C(F)(F)F)c3F)cs2)cnc1N1CCC(C(=O)O)CC1 |  |
| 4.92 | < 10 | 28 | NC(=O)C1CCN(c2ncc(C(=O)Nc3nc(-c4cccc(C(F)(F)F)c4F)cs3)cc2Cl)CC1 |  |
|  | < 10 | > 1000 | O=C(Nc1nc(-c2cccc(C(F)(F)F)c2F)cs1)c1cnc(N2CCC(C(=O)O)CC2)c(F)c1 |  |
| 1.83 | < 10 | 430 | O=C(Nc1nc(-c2cccc(C(F)(F)F)c2F)cs1)c1ccc(N2CCC(C(=O)O)CC2)nc1 |  |
| 2.94 | < 10 | 33 | O=C(Nc1nc(-c2cccc(C(F)(F)F)c2F)cs1)c1cnc(N2CCC(C(=O)O)CC2)c(Cl)c1 | fraction unbound [12]: < 0.005; fraction unbound [13]: < 0.005; fraction unbound [14]: < 0.005; fraction unbound [15]: < 0.005 |
